Measured values as given in patent US20030083376A1, “Depot preparations” (priority 2001, published 2003).

What was measured:
Format in all cases: physicochemical
[1] = Storage stability in powder laundry detergent; details: after one month
Text: (§1) The separate samples are then divided into portions.

[2] = Storage stability in soap; details: stored in the dark for about one month at room temperature
Text: as §1
The soap formulation below can be prepared in accordance with generally known methods. The data refer to percentages by weight.
The soap formulations A and B were stored in the dark for about one month at room temperature.

[3] = Hydrolysis rate in 1% strength aqueous soap solution, SPME headspace analysis
Method: To determine the hydrolysis rate, the depot preparation was added to a 1% strength aqueous soap solution, and the concentration of the depot preparation or of the free aldehyde was measured by SPME headspace analysis.

Compound | storage stability [1] [%] | Storage stability [%] [2] [%] | storage stability relative to the corresponding aldehyde [2] | time to complete hydrolysis [3] [min]
CCCCCCC=O [Aldehyde C7, n-Heptanal] | 27 | 27 |  | 
CCCCCCC(OCCc1ccccc1)OC(C)=O (centres unmarked) [Example 5, 1-(2-Phenylethoxy)heptyl Acetate] | 93 | 93 | significantly greater storage stability | ≤ 5
OCCc1ccccc1 [Phenylethyl alcohol, 2-Phenylethanol] | 91 | 91 |  | 
